Positions of bridges follow the written chain, without caps; N, C: chain ends. Non-standard residues stand in square brackets, D forms with d. Residues, ends and D or L forms follow the SMILES beside them. ξ: configuration not given here. ξI = CCC(C)C(N)C(=O)O Some results are limits rather than exact numbers.

The nature of data set [1]: Stability against acid hydrolysis. The class given is physicochemical. The conditions noted are these: pH 2.0 for 2 hrs at 37° C. As to the method: (§1) For example, to prepare a peptide 3 derivative, peptide 3(3-12)[MCP-1] was modified according to Jameson et al. (Nature, 368, 744 (1994)), which yielded CRD-Cys13leu4ile11peptide 3[MCP-1] (FIG. 4). CRD-Cys13eu4ile11peptide 3[MCP-1], which had very similar properties to peptide 3(1-12)[MCP-1] […] CRD-Cys13leu4ile11peptide 3[MCP-1] was also resistant to hydrolysis in vivo and allowed therapeutically useful plasma concentrations to be achieved (>10 μM 24 hours after a single intraperitoneal dose of 1 mg of CRD-Cys13leu4ile11peptide 3[MCP-1] in 250 μl saline).

Data set [2] is described as follows: Plasma concentration after a single intraperitoneal dose. The class given is in vivo. The conditions noted are these: ip, 24 hours after a single intraperitoneal dose of 1 mg in 250 μl saline. As to the method: as §1
For the next data set, the system named is trypsin. Kind of data set: Stability against enzymatic destruction. The class given is in vitro ADME. As to conditions: 5 units trypsin for 2 hrs at 37° C. As to the method:
as §1

Take `CCC(C)C1NC(=O)[C@@H](CCC(N)=O)NC(=O)[C@H](N)CSSC[C@H](C(=O)O)NC(=O)[C@@H](CC(C)C)NC(=O)[C@@H](CC(=O)O)NC(=O)[C@H]2CCCN2C(=O)[C@@H](CCCCN)NC(=O)[C@@H](CCC(N)=O)NC(=O)[C@@H](CCCCN)NC(=O)[C@@H](Cc2c[nH]c3ccccc23)NC1=O` (stereo partly drawn) [CRD-Cys13Leu4ile11peptide 3] (H-[dC][dQ][ξI][dW][dK][dQ][dK][dP][dD][dL][dC]-OH; disulfide 1-11; N-terminus and C-terminus assumed): the “degradation by acid hydrolysis” value in data set [1] is listed as below 10%. This compound had a level at time molar at 24 h in data set [2] above 10 µM. In the data set on trypsin, the “stability against enzymatic destruction” value is “stable”.

The record behind these values is patent US6989435B2, “Compounds and methods to inhibit or augment an inflammatory response” (Cambridge University Technical Services Ltd., priority 1997, dated 2006).
